Source: patent US20020173491A1, “DAPD combination therapy with inosine monophosphate dehydrogenase inhibitor” (priority 2000, published 2002)
Where two headings read alike, the source gives them in different places.

How the values were obtained:
xxLAI strain of HIV-1 [1] = experiment: microbe, parasite or virus in culture; type: cell-based; conditions: for Fold difference in EC50, 0.1 μM MPA: control vs with 0.1 μM MPA; for Fold difference in EC50, 0.25 μM MPA: control vs with 0.25 μM MPA (fold decrease); for Fold difference in EC50, 5 μM RBV: control vs with 5 μM RBV; for Fold difference in EC50, 10 μM RBV: control vs with 10 μM RBV
Protocol: Triplicate samples of compound were tested. MT2 cells were infected with xxLAI at a multiplicity of infection (MOI) of 0.03 for 3 hours at 37° C. in 5% CO2. The infected cells were plated at 3.0×10^4/well into a 96 well plated containing drug dilutions and incubated for 5 days at 37° C. in CO2. […] This method has been modified into a susceptibility assay and has been used in a variety of in vitro antiviral tests and is readily adaptable to any system with a lytic virus (Weislow, O. S., et. al. 1989). Using the absorption values of the cell controls as 100% protection and no drug, virus infected cells as 0% protection, a dose response curve is generated by plotting % protection on the Y axis and drug concentration on the X axis. From this curve EC50 values were determined.
Assays were performed in the MT2 cell line as described above in the XXT sensitivity assay section.
MPA was tested for activity against the xxLAI strain of HIV-1 in the laboratory adapted cell line MT2. Dilutions of MPA were made in cell culture media in a 96 well plate; the highest concentration tested was 1 μM. Triplicate samples of compound were tested. MT2 cells were infected with xxLAI at a multiplicity of infection (MOI) of 0.03 for 3 hours at 37° C. in 5% CO2. The infected cells were plated at 3.0×10^4/well into a 96 well plated containing drug dilutions and incubated for 5 days at 37° C. in CO2. The antiviral activity of MPA was determined using the XTT assay described above. This method has been modified into a susceptibility assay and has been used in a variety of in vitro antiviral tests and is readily adaptable to any system with a lytic virus (Weislow, O. S., et. al. 1989). Using the absorption values of the cell controls as 100% protection and no drug, virus infected cells as 0% protection, a dose response curve is generated by plotting % protection on the Y axis and drug concentration on the X axis. From this curve EC50 values were determined.
The concentrations of MPA used were 1, 0.5, 0.25, 0.1, and 0.01 μM. Assays were performed in the MT2 cell line as described in section 3.1.

xxLAI strain of HIV-1 [2] = experiment: microbe, parasite or virus in culture; type: cell-based; conditions: for effect of addition of 0.25 μM MPA on anti-HIV activity in PBMCs / effect of addition of 20 μM RBV on anti-HIV activity in PBMCs / Fold difference in EC50, 0.1 μM MPA / Fold difference in EC50, 0.25 μM MPA / Fold difference in EC50, 5 μM RBV / Fold difference in EC50, 10 μM RBV / Fold difference in EC50, 20 μM RBV: PBMC; for effect of addition of 0.25 μM MPA on anti-HIV activity in PBMCs / effect of addition of 20 μM RBV on anti-HIV activity in PBMCs: all the concentrations tested; for Fold difference in EC50, 0.1 μM MPA: control vs with 0.1 μM MPA; for Fold difference in EC50, 0.25 μM MPA: control vs with 0.25 μM MPA; for Fold difference in EC50, 5 μM RBV: control vs with 5 μM RBV; for Fold difference in EC50, 10 μM RBV: control vs with 10 μM RBV; for Fold difference in EC50, 20 μM RBV: control vs with 20 μM RBV
Protocol: In this assay, cell supernatants were incubated on microelisa wells coated with antibodies to HIV-1 p24 core antigen. Subsequently, anti-HIV-1 conjugate labeled with horseradish peroxidase was added. The labeled antibody bound to the solid phase antibody/antigen complexes previously formed. Addition of the tetramethylbenzidine substrate results in blue color formation. The color turned yellow when the reaction is stopped. The plates were then analyzed on a plate reader set at 490 nm. The absorbance is a direct measurement of the amount of HIV-1 produced in each well and a decrease in color indicates decreased viral production. […] PBMC were obtained from HIV-1 negative donors by banding on Ficoll gradients, stimulated with phytohemaglutinin (PHAP) for 48 hours prior to infection with HIV-1, and infected with virus for 4 hours at 37° C. at a MOI of 0.001. […] Plates were incubated for 3 days at 37° C. The concentration of virus in each well was determined using the NEN p24 assay. Using the absorption values of the cell controls as 100% protection and drug free, virus infected cells as 0% protection, a dose response curve is generated by plotting percent protection on the Y axis and drug concentration on the X axis. From this curve, EC50 values were determined.
Compound dilutions and assay conditions were as described above.
MPA was also tested for activity against the xxLAI strain of HIV-1 in PBMCs using a p24 based Elisa assay. In this assay, cell supernatants are incubated on microelisa wells coated with antibodies to HIV-1 p24 core antigen. Subsequently, anti-HIV-1 conjugate labeled with horse radish peroxidase is added. The labeled antibody binds to the solid phase antibody/antigen complexes previously formed. Addition of the tetramethylbenzidine substrate results in blue color formation. The color turns yellow when the reaction is stopped. The plates are then analyzed on a plate reader set at 490 nm. The absorbance is a direct measurement of the amount of HIV-1 produced in each well and a decrease in color indicates decreased viral production. Dilutions of MPA were made in cell culture media in a 96 well plate, the highest concentration of MPA tested was 1 μM. PBMC were obtained from HIV-1 negative donors by banding on Ficoll gradients, stimulated with phytohemaglutinin (PHAP) for 48 hours prior to infection with HIV-1, and infected with virus for 4 hours at 37° C. at a MOI of 0.001. Infected cells were seeded into 96 well plates containing 4-fold serial dilutions of MPA. Plates were incubated for 3 days at 37° C. The concentration of virus in each well was determined using the NEN p24 assay. Using the absorption values of the cell controls as 100% protection and drug free, virus infected cells as 0% protection, a dose response curve is generated by plotting % protection on the Y axis and drug concentration on the X axis. From this curve EC50 values were determined.
Compound dilutions and assay conditions were as described above. The concentrations of MPA used were 1, 0.5, 0.25, 0.1, and 0.01 μM.

[3] = Human immunodeficiency virus 1, MT2, read-out: Mean EC50, Control, MT2 cells, no MPA
[4] = Human immunodeficiency virus 1, MT2, read-out: Mean EC50, Control, MT2 cells, no RBV
[5] = read-out: Mean EC50, 0.01 μM MPA, MT2 cells, with 0.01 μM MPA
[6] = read-out: Mean EC50, 0.1 μM MPA, MT2 cells, with 0.1 μM MPA
[7] = read-out: Mean EC50, 0.25 μM MPA, MT2 cells, with 0.25 μM MPA
[8] = read-out: Mean EC50, 5 μM RBV, MT2 cells, with 5 μM RBV
[9] = read-out: Mean EC50, 10 μM RBV, MT2 cells, with 10 μM RBV
[10] = read-out: Mean EC50, 20 μM RBV, MT2 cells, with 20 μM RBV
[11] = Human immunodeficiency virus 1, PBMC, read-out: Mean EC50, Control, PMBCs, no MPA
[12] = Human immunodeficiency virus 1, PBMC, read-out: Mean EC50, Control, PMBCs, no RBV
[13] = read-out: Mean EC50, 0.01 μM MPA, PMBCs, with 0.01 μM MPA
[14] = read-out: Mean EC50, 0.1 μM MPA, PMBCs, with 0.1 μM MPA
[15] = read-out: Mean EC50, 0.25 μM MPA, PMBCs, with 0.25 μM MPA
[16] = read-out: Mean EC50, 1 μM RBV, PMBCs, with 1 μM RBV
[17] = read-out: Mean EC50, 5 μM RBV, PMBCs, with 5 μM RBV
[18] = read-out: Mean EC50, 10 μM RBV, PMBCs, with 10 μM RBV
[19] = read-out: Mean EC50, 20 μM RBV, PMBCs, with 20 μM RBV

Row | Structure (SMILES) | EC50 (xxLAI strain of HIV-1 [1]; [3]) [nM] | EC50 (xxLAI strain of HIV-1 [1]; [4]) [nM] | Fold difference in EC50, 0.1 μM MPA (xxLAI strain of HIV-1 [1]; MT2 cells) [fold] | Fold difference in EC50, 0.25 μM MPA (xxLAI strain of HIV-1 [1]; MT2 cells) [fold] | Fold difference in EC50, 5 μM RBV (xxLAI strain of HIV-1 [1]; MT2 cells) [fold] | Fold difference in EC50, 10 μM RBV (xxLAI strain of HIV-1 [1]; MT2 cells) [fold] | EC50 (xxLAI strain of HIV-1 [1]; [5]) [nM] | EC50 (xxLAI strain of HIV-1 [1]; [6]) [nM] | EC50 (xxLAI strain of HIV-1 [1]; [7]) [nM] | EC50 (xxLAI strain of HIV-1 [1]; [8]) [nM] | EC50 (xxLAI strain of HIV-1 [1]; [9]) [nM] | EC50 (xxLAI strain of HIV-1 [1]; [10]) [nM] | EC50 (xxLAI strain of HIV-1 [2]; [11]) [nM] | EC50 (xxLAI strain of HIV-1 [2]; [12]) [nM] | effect of addition of 0.25 μM MPA on anti-HIV activity in PBMCs (xxLAI strain of HIV-1 [2]; with 0.25 μM MPA) | effect of addition of 20 μM RBV on anti-HIV activity in PBMCs (xxLAI strain of HIV-1 [2]; with 20 μM RBV) | Fold difference in EC50, 0.1 μM MPA (xxLAI strain of HIV-1 [2]) [fold] | Fold difference in EC50, 0.25 μM MPA (xxLAI strain of HIV-1 [2]) [fold] | EC50 (xxLAI strain of HIV-1 [2]; [13]) [nM] | EC50 (xxLAI strain of HIV-1 [2]; [14]) [nM] | also measured
1 | Cc1cn([C@H]2C[C@H](N=[N+]=[N-])[C@@H](CO)O2)c(=O)[nH]c1=O [AZT, 3′-azido-3′-deoxy-thymidine] | 420 | 1700 | 0.5 | 0.44 | 0.37 | 0.29 | 300 | 800 | 950 | 4600 | 5900 | > 10000 | 3.1 | 3 | little effect | little effect | 1.5 | 1.8 | 2.6 | 2.1 | fold increase in the apparent EC50 (xxLAI strain of HIV-1 [1]; MT2 cells, addition of 0.25 μM MPA): 2.3 fold; Fold difference in EC50, 1 μM RBV (xxLAI strain of HIV-1 [1]; MT2 cells, control vs with 1 μM RBV): 0.59 fold; Fold difference in EC50, 20 μM RBV (xxLAI strain of HIV-1 [1]; MT2 cells, control vs with 20 μM RBV (fold decrease)): <0.17 fold; EC50 (xxLAI strain of HIV-1 [1]; read-out: Mean EC50, 1 μM RBV, MT2 cells, with 1 μM RBV): 2900 nM; Fold difference in EC50, 5 μM RBV (xxLAI strain of HIV-1 [2]): 1.2 fold; Fold difference in EC50, 10 μM RBV (xxLAI strain of HIV-1 [2]): 1.4 fold; Fold difference in EC50, 20 μM RBV (xxLAI strain of HIV-1 [2]): 1.4 fold; EC50 (xxLAI strain of HIV-1 [2]; [15]): 1.7 nM; EC50 (xxLAI strain of HIV-1 [2]; [16]): 3.5 nM; EC50 (xxLAI strain of HIV-1 [2]; [17]): 2.6 nM; EC50 (xxLAI strain of HIV-1 [2]; [18]): 2.2 nM; EC50 (xxLAI strain of HIV-1 [2]; [19]): 2.1 nM
2 | Nc1nc(NC2CC2)c2ncn([C@H]3C=C[C@@H](CO)C3)c2n1 [Abacavir] | 2400 | 4700 | 1 | 1.7 | 0.68 | 0.73 |  |  | 1400 | 6900 | 6400 | 5700 | 1200 | 540 | completely inhibited HIV replication | completely inhibited HIV replication | 3.2 | >50 | 1100 | 380 | fold difference in the apparent EC50 on addition of RBV (xxLAI strain of HIV-1 [1]; MT2 cells, addition of RBV): less than 2 fold; Fold difference in EC50, 5 μM RBV (xxLAI strain of HIV-1 [2]): 4.9 fold; Fold difference in EC50, 10 μM RBV (xxLAI strain of HIV-1 [2]): 18 fold; Fold difference in EC50, 20 μM RBV (xxLAI strain of HIV-1 [2]): >18 fold; EC50 (xxLAI strain of HIV-1 [2]; [15]): < 0.5 nM; EC50 (xxLAI strain of HIV-1 [2]; [16]): 200 nM; EC50 (xxLAI strain of HIV-1 [2]; [17]): 110 nM; EC50 (xxLAI strain of HIV-1 [2]; [18]): 30 nM; EC50 (xxLAI strain of HIV-1 [2]; [19]): < 30 nM
3 | Nc1nc(=O)n([C@@H]2CS[C@H](CO)O2)cc1F [FTC] |  |  | 1 |  |  |  | 620 | 620 |  |  |  |  |  |  | little effect |  | 1.2 | 1.8 | 8 | 9.3 | EC50 (xxLAI strain of HIV-1 [1]; MT2 cells, no MPA, read-out: Mean EC50, Control): 600 nM; EC50 (xxLAI strain of HIV-1 [1]; MT2 cells, with 0.25 μM MPA, read-out: Mean EC50, 0.25 μM MPA): 400 nM; EC50 (xxLAI strain of HIV-1 [2]; PMBCs, no MPA, read-out: Mean EC50, Control): 11 nM; EC50 (xxLAI strain of HIV-1 [2]; PMBCs, with 0.25 μM MPA, read-out: Mean EC50, 0.25 μM MPA): 6 nM
